The source of these data is publication PMC4889062, “Tachykinin-Related Peptides Share a G Protein-Coupled Receptor with Ion Transport Peptide-Like in the Silkworm Bombyx mori” (PLoS ONE, 2016).

Peptide text beside a SMILES is read from it.

Assay [1] has as its target EGFP-fused BNGR-A24 (Bombyx mori neuropeptide G protein-coupled receptor A24) (Bombyx mori) (UniProt B3XXN7). The experiment in a line: fluorescent-ligand binding on cells (confocal microscopy); CHO cells expressing EGFP-fused BNGR-A24, pre-incubated at 4°C for 30 min; unlabeled competitor added, then RR-labeled ligand; 4°C for 60 min; washed and fixed (4% formaldehyde in PBS); RR fluorescence normalized by EGFP.

Assay [2] concerns the target T1, BNGR-A24 (Bombyx mori, UniProt B3XXN7).
T1 sequence (B3XXN7 1-391): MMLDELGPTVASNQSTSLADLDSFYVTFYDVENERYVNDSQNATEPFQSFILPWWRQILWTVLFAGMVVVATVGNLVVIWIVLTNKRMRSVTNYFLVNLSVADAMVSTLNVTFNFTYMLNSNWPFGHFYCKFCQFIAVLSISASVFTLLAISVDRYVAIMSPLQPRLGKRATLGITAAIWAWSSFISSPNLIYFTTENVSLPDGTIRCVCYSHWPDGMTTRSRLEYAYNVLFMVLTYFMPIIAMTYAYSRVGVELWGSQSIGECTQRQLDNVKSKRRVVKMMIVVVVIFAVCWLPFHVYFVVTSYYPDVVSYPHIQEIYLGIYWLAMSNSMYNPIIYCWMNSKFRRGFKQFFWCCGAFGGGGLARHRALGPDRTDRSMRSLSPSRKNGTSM
The experiment in a line: cell-based. As for the experimental part: (§1) The assays were performed as previously reported. Briefly, HEK293T cells seeded on a glass-based dish were co-transfected with pME18S plasmids carrying BNGRs and the promiscuous G protein alpha subunit, Gα15. Following 24 h incubation, the transfected cells were loaded with 500 μL of a Ca^2+ indicator solution (2 μM Fluo-4 AM [Dojin Chemicals, Kumamoto, Japan] and 0.01% Pluronic-F 127 [Anaspec, San Jose, CA, USA] in Opti-MEM [Life Technologies]) and incubated at 37°C for 30 min in a dark room. The cells were washed twice with Ringer’s solution and then 800 μL Ringer’s solution was added to the cells. Within a given run time, 100 μL of the following compounds were added sequentially: Ringer’s solution (at 15 s, vehicle control), the peptide of interest or a mixture with its potential competitor (at 60 s), and 100 μM ATP (at 120 s, an experimental control). Fluo-4-derived fluorescence was chronologically monitored using a confocal laser-scanning microscope (FV-1000D; Olympus, Tokyo, Japan), with the preinstalled dye mode for Fluo-3. At least three independent experiments were performed. Dose-response curves were generated and EC50 values were calculated from the obtained fitting curves.
In order to evaluate whether the three TRP receptor candidates, BNGR-A24, -A32, and -A33, function as receptors for B. mori TRPs, the response of these three BNGRs to chemically synthesized TRPs was examined using the Ca^2+ imaging assay.
The response of HEK293T cells co-expressing BNGR-A24 (A) or BNGR-A32 (B) and promiscuous mouse Gα15 to the TRPs was monitored using the Ca^2+ imaging technique. Dose-response curves are depicted as relative fluorescent intensity (mean ± S.D.; n = 3).

For assay [3], the target named is T2, BNGR-A32 (Bombyx mori, UniProt B3XXP5).
T2 sequence (B3XXP5 1-372): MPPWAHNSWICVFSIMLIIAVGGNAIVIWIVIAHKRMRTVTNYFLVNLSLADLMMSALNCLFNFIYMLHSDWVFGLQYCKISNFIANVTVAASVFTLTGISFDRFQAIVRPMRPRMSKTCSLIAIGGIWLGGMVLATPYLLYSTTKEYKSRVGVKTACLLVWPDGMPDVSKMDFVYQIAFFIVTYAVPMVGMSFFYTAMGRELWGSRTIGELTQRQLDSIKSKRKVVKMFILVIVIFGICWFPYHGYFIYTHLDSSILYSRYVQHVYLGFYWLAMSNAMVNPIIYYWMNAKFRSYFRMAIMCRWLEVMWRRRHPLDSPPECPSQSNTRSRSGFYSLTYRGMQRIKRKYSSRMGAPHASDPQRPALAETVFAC
The experiment in a line: Ca2+ imaging assay of BNGR-A32 in HEK293T cells co-expressing Gα15. The format is cell-based. Particulars: HEK293T cells co-expressing BNGR-A32 and promiscuous mouse Gα15; Fluo-4 Ca2+ imaging; from fitted dose-response curves, n = 3. As for the experimental part: as §1, with “curves. […]” for “curves.”
The response of HEK293T cells co-expressing BNGR-A24 (A) or BNGR-A32 (B) and promiscuous mouse Gα15 to the TRPs was monitored using the Ca^2+ imaging technique. […]

Assay [4] addresses BNGR-A32 (Bombyx mori neuropeptide G protein-coupled receptor A32) (Bombyx mori).
The target in assay [5] is EGFP-fused BNGR-A24 (Bombyx mori neuropeptide G protein-coupled receptor A24) (Bombyx mori) (UniProt B3XXN7).
For assay [6], the target named is T1, BNGR-A24. The assay is described as follows: Competitive binding assay, RR-labeled ligands and CHO cells expressing EGFP-fused BNGR-A24. Particulars: 1–100 μM unlabeled TK-4 added before RR-labeled rITPL; CHO cells, EGFP-fused BNGR-A24, 4°C. As for the experimental part:
Binding assays were performed as previously reported. Briefly, CHO cells were transfected with 2 μg of pME18S plasmids harboring enhanced green fluorescent protein (EGFP)-fused BNGR cDNA. The binding assay was performed with cells 24 h post transfection. The cells were pre-incubated at 4°C for 30 min prior to the assay to minimize receptor internalization by ligand binding. Following the addition of 50 μL of non-labeled ligand as a potential competitor, 50 μL of RR-labeled ligand was added. Subsequent to incubation at 4°C for 60 min, the cells were washed twice with an ice-cold fixation buffer (4% formaldehyde in PBS) and then 500 μL of the fixation buffer was added. The fluorescence derived from EGFP and RR was observed using a confocal microscope (FV-1000D) with preinstalled dye modes for EGFP and DsRed, respectively. The fluorescent data obtained from six individual cells of at least two independent experiments were analyzed using Fluoview software (Olympus).
Following 30-min exposure of the cells to RR-labeled rITPL or TK-4, both red fluorescence (derived from the RR-labeled ligands) and green fluorescence (derived from EGFP C-terminally fused to BNGR-A24) were observed on the cell surface, indicating ligand-receptor binding (Fig 4). […] In this case, the addition of 20 μM rITPL reduced the ligand-derived signal by approximately 90% compared to that observed without the addition of unlabeled ligand.
Fig 4 In vitro competitive binding assay of rITPL and TK-4 to BNGR-A24. (A–D) Microscopic imaging. The binding of RR-labeled ligands (A and C, rITPL; B and D, TK-4) and CHO cells expressing EGFP-fused BNGR-A24 was examined in the presence of potential competitors (A, TK-4; B, rITPL; C and D, spantide I [SP]). EGFP and RR fluorescences were observed by confocal microscopy. Co-localization is presented as yellow in the merged images (Merge). Representative images of cells from at least two independent experiments are shown. (E–H) Relative fluorescent intensity obtained from experiment images (A)–(D), respectively. […]

In assay [7] the test system is BmN cells (BNGR-A24-expressing). The experiment in a line: Competitive cGMP assay in BmN cells. The format is cell-based, Bombyx mori. Particulars: 30 min, IBMX. As for the experimental part: BmN cells were plated in 12-well tissue culture plates (2 × 10^5 cells/well; Asahi glass, Yokohama, Japan) and maintained in normal growth medium (TC-100 [Applichem, Darmstadt, Germany], 10% FBS, and 50 μg/mL gentamycin). At 3 days post-seeding, the cells were pre-incubated in 800 μL of assay medium (TC-100 supplemented with 1 mM 1-methyl-3-isobutylxanthine [IBMX; Sigma-Aldrich, Tokyo, Japan]) and 1 mM phenylmethylsulfonyl fluoride for 10 min at 28°C. Following pre-incubation, 100 μL of a potential competitor and 100 μL of the peptide of interest were added sequentially to the medium and incubated at 28°C for 30 min. […] The extracted cAMP and cGMP were quantified in duplicate using a cAMP ELISA kit (Cayman Chemicals, Ann Arbor, MI, USA) and a cGMP EIA system (GE Healthcare, Hino, Japan), respectively. […]
Since ITPL and TK-4 are competitive ligands of BNGR-A24, we hypothesized that TK-4 might inhibit the cGMP signal induced by ITPL via the binding of ITPL to BNGR-A24. To confirm this hypothesis, we added an excess of TK-4 to BmN cells exposed to rITPL and evaluated the stimulatory effect of ITPL on the cGMP signal.
Fig 5 Effects of TK-4, rITPL, and spantide I on cyclic nucleotide levels in BmN cells. Intracellular cGMP (A) and cAMP (B) levels in BmN cells following 30-min incubation with the peptide and reagent of interest at the indicated concentrations were measured. […]

In the case of “Recombinant B. mori ion transport peptide-like (rITPL) (ligand)”, in assay [1], the percent reduction of the RR-labeled TK-4 signal at 20 uM rITPL was 90%.
The EC50 is the midpoint of the concentration-response curve. The low end stands for higher potency in that assay, the high end for lower potency in that assay. As to `CSCC[C@H](NC(=O)CNC(=O)[C@H](Cc1ccccc1)NC(=O)[C@H](Cc1ccccc1)NC(=O)CNC(=O)[C@H](CCSC)NC(=O)[C@H](CCC(N)=O)NC(=O)CN)C(=O)N[C@@H](CCCNC(=N)N)C(N)=O` [TK-5] (H-GQMGFFGMR-NH2), the EC50 in assay [2] turned out to be 2.3 nM; in assay [3] it was 0.48 nM.
In assay [4], B. mori tachykinin-related peptide TK-5 showed an EC50 of the Ca2+ imaging response (Fluo-4) of HEK293T cells co-expressing BNGR-A32 and Galpha15 of 0.48 nM. Also, the EC50 of the Ca2+ imaging response (Fluo-4) of HEK293T cells co-expressing BNGR-A24 and Galpha15 in assay [5] amounted to 2.3 nM.
Compound `CC[C@H](C)[C@H](NC(=O)[C@H](Cc1ccccc1)NC(=O)[C@H](CCCCN)NC(=O)CNC(=O)[C@H](CCCNC(=N)N)NC(=O)[C@@H](NC(=O)[C@H](CO)NC(=O)[C@H](CC(C)C)NC(=O)[C@H](CC(=O)O)NC(=O)[C@H](Cc1ccc(O)cc1)NC(=O)[C@@H]1CCCN1)[C@@H](C)CC)C(=O)NCC(=O)N[C@H](C(=O)N[C@@H](CCCNC(=N)N)C(N)=O)C(C)C` [TK-4] (H-PYDLSIRGKFIGVR-NH2; N-terminus assumed) showed a concentration for a half-maximal effect (EC50) in assay [2] of 0.27 nM. For the same compound, the “Fluorescence of RR-labeled rITPL on the cell surface” value in assay [6] is listed as “gradually decreased”. For the same compound, the “Effect on rITPL-induced cGMP levels” value in assay [7] (BmN cells exposed to 100 nM rITPL, ≥3 μM TK-4 added as competitor) was “significant decrease”. The “Intracellular cGMP levels” value in assay [7] (BmN cells, peptide alone at concentrations as high as 10 μM, 28°C, cGMP EIA) is “failed to increase”.
